Patent US20200170244A1, “METHODS FOR PRESERVING, TRANSPORTING AND STORING LIVING BIOLOGICAL MATERIALS” (priority 2013, published 2020)
Entries after “also recorded” stand apart in the source; their conditions may differ.

Tested on: keratinocytes
Experiment: Effect of vanadium compounds on proliferation of keratinocytes (hair follicle culture, cell count)
Assay type: cell-based
Details: 14 days at 31° C.; for amount of proliferated keratinocytes (number of cells per ml of culture medium): 1 mg/ml in basic SFK growth serum, relative to control SFK without vanadium compound
Method: Method: The hair follicles were transferred to a 24-well culture disk containing dSFK with […] penicillin (Life Technologies B.V. Breda, The Netherlands) and 0.25 μg/ml streptomycin (Life Technologies B.V. Breda, The Netherlands), and placed for 14 days in a culture medium at 31° C. in a humidified atmosphere containing 5% CO2. Three different culture medium were used: • Treatment group oxovanadium (OVAN): The culture medium is a composition comprising a basic SFK growth serum (purchased from the supplier SFK, Enschede The Netherlands) supplemented with either 1 mg/ml of OVAN. • Treatment group bis (maltolato) oxovanadium (BMOV): The culture medium is a composition comprising a basic SFK growth serum (purchased from the supplier SFK, Enschede The Netherlands) supplemented with either 1 mg/ml of BMOV. • Control group: The control situation consists of a composition comprising the SFK basic growth serum but without the vanadium compounds (i.e. OVAN or BMOV).
The respective culture media were carefully removed every three days and replaced by fresh culture media. The cells remained attached to the hair follicles during this culture period. After 14 days the culture medium was removed and replaced by a 0.5 mg/ml trypsin, 0.2 mg/ml EDTA (ethylene diaminetetraacetic acid) solution (Life Technologies B.V. Breda, The Netherlands), and incubated for 5 minutes at 37° C. in this medium. After this incubation period clusters of cells were released from the hair follicles. These were harvested by centrifugation at 300 g at 4° C. for 5 minutes in a Eppendorf 5804R Centrifuge (VWR International, The Netherlands). Number of cells were counted and expressed as amount of proliferated cells per ml of culture medium.

| Compound | proliferated keratinocytes, BMOV compared with OVAN (1 mg/ml each in basic SFK growth serum) | amount of proliferated keratinocytes (number of cells per ml of culture medium) |
| --- | --- | --- |
| Cc1occc(=O)c1[O-].Cc1occc(=O)c1[O-].[O]=[V+2] [BMOV, bis(maltolato)oxovanadium] | more potent than OVAN; also recorded: greater number of proliferated cells relative to treatment with OVAN | significantly increased; also recorded: enhanced proliferation |
| oxovanadium | – | significantly increased; also recorded: enhanced proliferation |
